Source: the supplement of paper PMC13207355
Where a name gives a salt, the structure may show the parent alone.

What was measured:
Settings in all cases: exposure time: 72 h
[1] = tested on: E28 (patient-derived glioblastoma stem cells of classical subtype); assay: phenotypic distance (Euclidean, principal components) from DMSO controls (arbitrary units); higher = stronger morphological change
[2] = tested on: E31 (patient-derived glioblastoma stem cells of proneural subtype); assay: as above
[3] = tested on: E21 (patient-derived glioblastoma stem cells of mesenchymal subtype); assay: as above
[4] = tested on: E57 (patient-derived glioblastoma stem cells of mesenchymal subtype); assay: as above
[5] = tested on: E34 (patient-derived glioblastoma stem cells of proneural subtype); assay: as above
[6] = tested on: FT3469 (normal neural stem cell line); assay: as above
[7] = tested on: E13 (patient-derived glioblastoma stem cells of classical subtype); assay: as above
[8] = tested on: E28; assay: surviving fraction (nuclei count normalised to DMSO); higher = more cells surviving (less toxic)
[9] = tested on: E31; assay: as above
[10] = tested on: E21; assay: as above
[11] = tested on: E57; assay: as above
[12] = tested on: E34; assay: as above
[13] = tested on: FT3469; assay: as above
[14] = tested on: E13; assay: as above
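Throughout, for phenotypic distance (Euclidean, principal components) from DMSO controls: cell Painting imaging in 384-well plates, CellProfiler features reduced to at least 20 principal components, Euclidean distance versus same-plate DMSO vehicle wells (0.1% v/v), median over six images per well.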
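Throughout, for surviving fraction (nuclei count normalised to DMSO): nuclei counted by high-content imaging of Hoechst-stained cells in laminin-coated 384-well plates, relative to 0.1% DMSO vehicle wells, with staurosporine as cell-death control.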

Cc1c(-c2ccc(-c3ccccc3F)cc2)nc2ccc(F)cc2c1C(=O)O [Brequinar sodium salt hydrate]
Settings | phenotypic distance | surviving fraction
[1], 4.1 nM | 1.07 | –
[1], 12.3 nM | 0.503 | –
[1], 37 nM | 0.823 | –
[1], 111.1 nM | 1.12 | –
[1], 333.3 nM | 1.2 | –
[1], 1000 nM | 2.26 | –
[1], 3000 nM | 2.28 | –
[2], 4.1 nM | 0.556 | –
[2], 12.3 nM | 0.921 | –
[2], 37 nM | 0.734 | –
[2], 111.1 nM | 0.725 | –
[2], 333.3 nM | 2.59 | –
[2], 1000 nM | 3.28 | –
[2], 3000 nM | 3.43 | –
[3], 4.1 nM | 0.972 | –
[3], 12.3 nM | 0.391 | –
[3], 37 nM | 1.22 | –
[3], 111.1 nM | 0.607 | –
[3], 333.3 nM | 1.48 | –
[3], 1000 nM | 2.5 | –
[3], 3000 nM | 3.68 | –
[4], 4.1 nM | 1.62 | –
[4], 12.3 nM | 0.514 | –
[4], 37 nM | 1.88 | –
[4], 111.1 nM | 3.44 | –
[4], 333.3 nM | 5.23 | –
[4], 1000 nM | 6.97 | –
[4], 3000 nM | 6.84 | –
[5], 4.1 nM | 0.701 | –
[5], 12.3 nM | 0.581 | –
[5], 37 nM | 0.513 | –
[5], 111.1 nM | 0.804 | –
[5], 333.3 nM | 1 | –
[5], 1000 nM | 1.62 | –
[5], 3000 nM | 2.87 | –
[6], 4.1 nM | 0.696 | –
[6], 12.3 nM | 0.439 | –
[6], 37 nM | 0.863 | –
[6], 111.1 nM | 0.612 | –
[6], 333.3 nM | 1.17 | –
[6], 1000 nM | 1.76 | –
[6], 3000 nM | 1.88 | –
[7], 4.1 nM | 0.5 | –
[7], 12.3 nM | 0.844 | –
[7], 37 nM | 0.761 | –
[7], 111.1 nM | 1.8 | –
[7], 333.3 nM | 4.41 | –
[7], 1000 nM | 4.43 | –
[7], 3000 nM | 5.02 | –
[8], 4.1 nM | – | 1.13
[8], 12.3 nM | – | 1.03
[8], 37 nM | – | 0.963
[8], 111.1 nM | – | 0.807
[8], 333.3 nM | – | 0.606
[8], 1000 nM | – | 0.42
[8], 3000 nM | – | 0.344
[9], 4.1 nM | – | 1.1
[9], 12.3 nM | – | 1
[9], 37 nM | – | 0.96
[9], 111.1 nM | – | 1.13
[9], 333.3 nM | – | 0.724
[9], 1000 nM | – | 0.392
[9], 3000 nM | – | 0.407
[10], 4.1 nM | – | 0.951
[10], 12.3 nM | – | 1.04
[10], 37 nM | – | 0.918
[10], 111.1 nM | – | 0.817
[10], 333.3 nM | – | 0.699
[10], 1000 nM | – | 0.649
[10], 3000 nM | – | 0.444
[11], 4.1 nM | – | 0.969
[11], 12.3 nM | – | 0.999
[11], 37 nM | – | 0.871
[11], 111.1 nM | – | 0.67
[11], 333.3 nM | – | 0.458
[11], 1000 nM | – | 0.372
[11], 3000 nM | – | 0.325
[12], 4.1 nM | – | 0.811
[12], 12.3 nM | – | 0.864
[12], 37 nM | – | 0.96
[12], 111.1 nM | – | 1.01
[12], 333.3 nM | – | 0.909
[12], 1000 nM | – | 0.888
[12], 3000 nM | – | 0.794
[13], 4.1 nM | – | 0.883
[13], 12.3 nM | – | 0.941
[13], 37 nM | – | 0.996
[13], 111.1 nM | – | 1
[13], 333.3 nM | – | 0.858
[13], 1000 nM | – | 0.742
[13], 3000 nM | – | 0.65
[14], 4.1 nM | – | 1.01
[14], 12.3 nM | – | 1.08
[14], 37 nM | – | 1.03
[14], 111.1 nM | – | 0.858
[14], 333.3 nM | – | 0.726
[14], 1000 nM | – | 0.615
[14], 3000 nM | – | 0.471

C=CC(=O)Nc1cc(Nc2nccc(-c3cn(C)c4ccccc34)n2)c(OC)cc1N(C)CCN(C)C [Osimertinib mesylate]
Settings | phenotypic distance | surviving fraction
[1], 4.1 nM | 0.567 | –
[1], 12.3 nM | 0.684 | –
[1], 37 nM | 0.633 | –
[1], 111.1 nM | 1.15 | –
[1], 333.3 nM | 0.864 | –
[1], 1000 nM | 1.16 | –
[1], 3000 nM | 2.16 | –
[2], 4.1 nM | 0.452 | –
[2], 12.3 nM | 0.55 | –
[2], 37 nM | 1.12 | –
[2], 111.1 nM | 0.652 | –
[2], 333.3 nM | 0.826 | –
[2], 1000 nM | 1.22 | –
[2], 3000 nM | 2.48 | –
[3], 4.1 nM | 0.814 | –
[3], 12.3 nM | 0.422 | –
[3], 37 nM | 1.04 | –
[3], 111.1 nM | 0.922 | –
[3], 333.3 nM | 1.1 | –
[3], 1000 nM | 1.12 | –
[3], 3000 nM | 4.6 | –
[4], 4.1 nM | 0.541 | –
[4], 12.3 nM | 0.746 | –
[4], 37 nM | 0.59 | –
[4], 111.1 nM | 1.02 | –
[4], 333.3 nM | 1.3 | –
[4], 1000 nM | 1.38 | –
[4], 3000 nM | 3.02 | –
[5], 4.1 nM | 0.472 | –
[5], 12.3 nM | 0.514 | –
[5], 37 nM | 0.843 | –
[5], 111.1 nM | 0.747 | –
[5], 333.3 nM | 1.66 | –
[5], 1000 nM | 0.95 | –
[5], 3000 nM | 1.31 | –
[6], 4.1 nM | 0.624 | –
[6], 12.3 nM | 0.753 | –
[6], 37 nM | 0.623 | –
[6], 111.1 nM | 0.801 | –
[6], 333.3 nM | 0.702 | –
[6], 1000 nM | 1.37 | –
[6], 3000 nM | 1.12 | –
[7], 4.1 nM | 0.974 | –
[7], 12.3 nM | 0.598 | –
[7], 37 nM | 0.826 | –
[7], 111.1 nM | 0.647 | –
[7], 333.3 nM | 1.84 | –
[7], 1000 nM | 1.28 | –
[7], 3000 nM | 2.96 | –
[8], 4.1 nM | – | 0.973
[8], 12.3 nM | – | 1.04
[8], 37 nM | – | 0.86
[8], 111.1 nM | – | 1.01
[8], 333.3 nM | – | 0.864
[8], 1000 nM | – | 0.922
[8], 3000 nM | – | 0.496
[9], 4.1 nM | – | 0.963
[9], 12.3 nM | – | 0.947
[9], 37 nM | – | 1.02
[9], 111.1 nM | – | 0.92
[9], 333.3 nM | – | 0.743
[9], 1000 nM | – | 0.773
[9], 3000 nM | – | 0.435
[10], 4.1 nM | – | 1.11
[10], 12.3 nM | – | 0.955
[10], 37 nM | – | 0.892
[10], 111.1 nM | – | 1.05
[10], 333.3 nM | – | 0.931
[10], 1000 nM | – | 0.909
[10], 3000 nM | – | 0.455
[11], 4.1 nM | – | 0.979
[11], 12.3 nM | – | 0.953
[11], 37 nM | – | 0.84
[11], 111.1 nM | – | 0.864
[11], 333.3 nM | – | 0.875
[11], 1000 nM | – | 0.79
[11], 3000 nM | – | 0.547
[12], 4.1 nM | – | 0.904
[12], 12.3 nM | – | 0.975
[12], 37 nM | – | 0.973
[12], 111.1 nM | – | 0.878
[12], 333.3 nM | – | 1.13
[12], 1000 nM | – | 0.996
[12], 3000 nM | – | 0.702
[13], 4.1 nM | – | 0.963
[13], 12.3 nM | – | 0.989
[13], 37 nM | – | 1.02
[13], 111.1 nM | – | 1.03
[13], 333.3 nM | – | 0.843
[13], 1000 nM | – | 1.07
[13], 3000 nM | – | 0.638
[14], 4.1 nM | – | 0.883
[14], 12.3 nM | – | 1
[14], 37 nM | – | 0.978
[14], 111.1 nM | – | 0.951
[14], 333.3 nM | – | 1.03
[14], 1000 nM | – | 0.935
[14], 3000 nM | – | 0.547
